Measured values from patent US7026342B2, “Method for treating fibrotic diseases or other indications utilizing thiazole, oxazole and imidazole compounds” (Alteon, Inc., priority 2000, dated 2006).
Where a name gives a salt, the structure may show the parent alone.

Key:
Type IV collagen = experiment: In situ hybridization studies, Type IV collagen expression
Description: (§1) Cardiovascular risk correlates more closely with the systolic and the pulse pressure than with the diastolic pressure. In diabetic patients, the cardiovascular risk profile of diabetic patients is strongly correlated to duration of diabetes, glycemic control and blood pressure. Structural matrix proteins contribute to the function of vessels and the heart, and changes in the physical behavior of cardiovascular walls are believed to be important determinants of circulatory function. In elderly individuals, the loss of compliance in the aorta leads to isolated systolic hypertension, which in turn expands the arterial wall and thereby diminishes the dynamic range of elasticity.

dog model for diabetes = experiment: Dog model for diabetes, ventricular elasticity; assay type: in vivo
Description: as §1

[1] = test system: Rats with left anterior descending coronary artery ligated; experiment: Rat myocardial infarct model, left anterior descending coronary artery ligated; assay type: in vivo; conditions: 10 mg/kg intraperitoneal daily for 30 days before ligation and 14 days after
Method: Rats received a daily intraperitoneal dose of 10 mg/kg 3-[2-phenyl-2-oxoethyl]-4,5-dimethyl-thiazolium salt (compound A) (n=14) or placebo (n=15) for 30 days. The animals then underwent a thoracotomy and the left anterior descending coronary artery ligated. The chest was then closed and the animals allowed to recover for 14 days while continuing to be treated with compound A or placebo. The animals were then sacrificed and the hearts removed for histological examination. The weight of the infarcted tissue was 0.16±0.04 g for the placebo treated animals compared to 0.11±0.05 g for the compound A treated animals (p=0.04).

[2] = test system: elderly patients with pulse pressures greater than 60 mm Hg; experiment: Phase IIa clinical trial; assay type: in vivo, human
Description: When the heart pumps blood into the vascular system, the ability of the arteries to expand helps to push blood through the body. When arteries become stiff, as they do in the natural process of aging, the ability of the arteries to expand is diminished and also has consequences for the heart. The heart has to work harder to pump the blood into the stiff arteries, and eventually hypertrophies (enlarges in size) to accomplish this. A hypertrophied heart is an inefficient pump, and is one of the disorders that leads to congestive heart failure. […] The potential clinical benefit of this is to lessen the effort that the heart must expend to push blood throughout the body. The effect is also believed to contribute to preventing hypertrophy and subsequent inefficiency of the heart, which inefficiency would contribute to congestive heart failure.
Atherosclerosis is a disease that involves deposition of blood lipids in plaque in the arteries throughout the body. In coronary arteries, accumulation of plaque progressively leads to reduced coronary flow, with occlusion of the arteries causing focal death of cardiac tissue (myocardial infarction, heart attack). If the amount of tissue that dies is large enough, death ensures. […] Reducing local deposits of plaque should eventually lessen the risk of myocardial infarction and death due to heart attacks.
Pulse pressure is the difference between systolic and diastolic blood pressure. In a young human, systolic pressure is typically 120 mm Hg and diastolic pressure is 80 mm Hg, resulting in a pulse pressure of 40 mm Hg. With age, in many individuals pulse pressure increases, largely due to the increase in systolic pressure that results from stiff vessel disease. In individuals with pulse pressure greater than 60 mm Hg there is an increased risk of death from cardiovascular morbidities. […] This decrease in pulse pressure was believed to be due primarily to the effect of the agent on lowering the systolic blood pressure.

cardiovascular tissues = experiment: In vivo studies of vascular stiffening and cardiovascular collagen; set-up: species or system rodents, canines and primates
Description: as §1

TGFbeta = experiment: In situ hybridization studies, TGFbeta expression
Description: as §1

With `Cc1sc[n+](CC(=O)c2ccccc2)c1C` [compound A, 3-[2-phenyl-2-oxoethyl]-4,5-dimethyl-thiazolium salt] the “expression of Type IV collagen” value (Type IV collagen) was “reduces the expression of both Type IV collagen and TGFbeta”, the “end diastolic pressure and end diastolic volume, indicators of ventricular elasticity” value (dog model for diabetes) was “returned to a value at about the mid-point between the disease impaired value and the value for control dogs” and the “weight of the infarcted tissue” value ([1]; n=14, p=0.04 vs placebo) was 0.11 ± 0.05 g. The “thickness of the ventricular wall in the infarcted zone” value ([1]; n=14, p=0.09 vs placebo) was 2.56±0.22 mm, the “stiffness of arteries, measured by the ratio of stroke volume (ml) to pulse pressure (mm Hg)” value ([2]; Phase IIa clinical trial) was “showed an ability to reverse the stiffness of arteries” and the “amount of circulating triglycerides (lipids)” value ([2]; Phase IIa trial) was “increased the amount of circulating triglycerides”. The pulse pressure ([2]; Phase IIa trial, elderly patients with pulse pressures greater than 60 mm Hg, statistically significant) was “reduced pulse pressure”, the “mass of collagen in cardiovascular tissues” value (cardiovascular tissues; in vivo) was “reduction in the mass of collagen in cardiovascular tissues” and the vascular stiffening (cardiovascular tissues; in vivo studies in rodents, canines and primates) was “substantially ameliorating vascular stiffening”. For the same molecule, the “expression of TGFbeta” value (TGFbeta) was “reduces the expression of both Type IV collagen and TGFbeta”.
